# Laboratory results: patent publication US6869931B1, “Inhibition of angiogenesis by high molecular weight kininogen domain 3 peptide analogs” (Temple University - Of The Commonwealth System of Higher …, priority 1998, dated 2005)
# Residues, ends and D or L forms follow the SMILES beside them. No end group written: not given here.
# Tested on: human umbilical vein endothelial cells (HUVEC)
# Settings: 48 h
row,Molecule,IC50
1,"CC[C@H](C)[C@H](NC(=O)[C@H](CCCCN)NC(=O)[C@@H](N)[C@@H](C)O)C(=O)N[C@@H](CS)C(=O)N[C@H](C(=O)NCC(=O)N[C@@H](CS)C(=O)N1CCC[C@H]1C(=O)N[C@@H](CCCNC(=N)N)C(=O)N[C@@H](CC(=O)O)C(=O)N[C@H](C(=O)N1CCC[C@H]1C(=O)N[C@H](C(=O)N[C@@H](CC(N)=O)C(=O)N[C@@H](CO)C(=O)N1CCC[C@H]1C(=O)O)[C@@H](C)O)[C@@H](C)CC)C(C)C [SEQ ID NO:11, Thr-Lys-Ile-Cys-Val-Gly-Cys-Pro-Arg-Asp-Ile-Pro-Thr-Asn-Ser-Pro] (H-TKICVGCPRDIPTNSP-OH)",30 µM
2,"H-ETKKLGQSLDANAEVY-OH [SEQ ID NO:15, Glu-Thr-Lys-Lys-Leu-Gly-Gln-Ser-Leu-Asp-Ala-Asn-Ala-Glu-Val-Tyr]",42 µM
3,"H-LDANAEVYVVPWEKKI-OH [SEQ ID NO:16, Leu-Asp-Ala-Asn-Ala-Glu-Val-Tyr-Val-Val-Pro-Trp-Glu-Lys-Lys-Ile]",44 µM
4,"H-NNATFYFKIDNVKKAR-OH [SEQ ID NO:10, Asn-Asn-Ala-Thr-Phe-Tyr-Phe-Lys-Ile-Asp-Asn-Val-Lys-Lys-Ala-Arg]",< 0.8 µM
5,"H-TITKLNAENNATFYFK-OH [SEQ ID NO:9, Thr-Ile-Thr-Lys-Leu-Asn-Ala-Glu-Asn-Asn-Ala-Thr-Phe-Tyr-Phe-Lys]",< 0.8 µM
6,"YFIDFVARETTASKES-OH [SEQ ID NO:20, Tyr-Phe-Ile-Asp-Phe-Val-Ala-Arg-Glu-Thr-Thr-Ala-Ser-Lys-Glu-Ser]",28 µM

# Same assay, conditions: HUVEC, bFGF-induced proliferation
row,Molecule,Inhibition of endothelial cell proliferation (result in words)
1,"YFIDFVARETTASKES-OH [SEQ ID NO:20, Tyr-Phe-Ile-Asp-Phe-Val-Ala-Arg-Glu-Thr-Thr-Ala-Ser-Lys-Glu-Ser]",inhibits endothelial cell proliferation
